Reference: patent US9474790B2, “Stable, protracted GLP-1/glucagon receptor co-agonists for medical use” (Novo Nordisk A/S, priority 2013, dated 2016)
Numbered stars: 1 amine (or outer) side, 2 acyl side, 3 side chain; on linkers, the order of the positions; unused ones are H or OH. Square brackets hold non-standard residues; d marks the D form. Side chains are listed from the residue outwards. Peptide text beside a SMILES is read from it. * marks the point of attachment. C18 diacid = O=C(O)CCCCCCCCCCCCCCCCC(=O)*; γGlu = O=C(O)[C@H](CCC(=O)[*:2])N[*:1]; AEEA = NCCOCCOCC(=O)O; Aib = CC(C)(N)C(=O)O

Target: T1, human glucagon receptor (Homo sapiens, UniProt P47871)
T1 construct: expressed in transfected cells; host or cells: BHK cells (parent BHK570, CRE luciferase clone BHK/KZ10-20-48), clone pLJ6'-4-25
T1 sequence (P47871 26-477): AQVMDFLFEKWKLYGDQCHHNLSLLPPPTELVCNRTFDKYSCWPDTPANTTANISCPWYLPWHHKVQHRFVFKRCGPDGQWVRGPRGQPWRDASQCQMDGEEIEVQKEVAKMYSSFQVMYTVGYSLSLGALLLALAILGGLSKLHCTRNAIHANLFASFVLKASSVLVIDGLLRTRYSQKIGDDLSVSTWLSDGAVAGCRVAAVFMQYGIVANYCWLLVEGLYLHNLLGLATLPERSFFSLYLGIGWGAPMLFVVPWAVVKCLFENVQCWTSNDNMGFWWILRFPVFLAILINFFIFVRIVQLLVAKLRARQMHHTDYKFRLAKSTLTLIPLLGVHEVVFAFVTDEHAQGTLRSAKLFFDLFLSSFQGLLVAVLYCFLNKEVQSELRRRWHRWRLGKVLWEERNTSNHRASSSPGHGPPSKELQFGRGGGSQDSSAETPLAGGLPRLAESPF
Test: Glucagon receptor binding, 125I-glucagon displacement SPA on isolated membranes
Settings: displacement of 125I-glucagon from membranes; read-out: IC50 GlucR
Procedure: The purpose of this assay was to test the in vitro receptor binding activity (i.e. affinity) of the glucagon derivatives of the invention. The receptor binding activity is a measure of affinity of a derivative for the human glucagon receptor.
The receptor binding of each compound to the human glucagon receptor was measured in a displacement binding assay. In this type of assay a labelled ligand (in this case 125I-glucagon) is bound to the receptor. Each derivative was added in a series of concentrations to isolated membranes containing the human glucagon receptor and displacement of the labelled ligand is monitored. The receptor binding was reported as the concentration at which half of the labelled ligand is displaced from the receptor, the IC50 value.
In order to test the binding of the derivatives to albumin, the assay may be performed in a very low concentration of serum albumin (max. 0.001% final assay concentration) as well as in the presence of a higher concentration of serum albumin (0.2% final assay concentration). An increase of the IC50 value, in the presence of serum albumin indicates an affinity to serum albumin and represents a method to predict a protracted pharmacokinetic profile of the test substance in animal models.
The following chemicals were used in the assay: DMEM w Glutamax (Gibco 61965-026), Pen/strep (Invitrogen 15140-122), G418 (Invitrogen 10131-027), Versene (Gibco 15040), 1 M Hepes (Gibco 15630), PBS (Invitrogen 14190-094), fetal calf serum (Invitrogen 16140-071), MgCl2 (Merck 1.05832.1000), EDTA (Invitrogen 15575-038), CaCl2 (Sigma, C5080), Tween 20 (Amresco 0850C335), ovalbumin (Sigma A5503), SPA particles (wheat germ agglutinin (WGA) SPA beads, Perkin Elmer RPNQ0001), [125I]-glucagon (produced in-house), OptiPlate™-96 (Packard 6005290).
HME buffer consisted of 25 mM HEPES, 2 mM MgCl2 and 1 mM EDTA, and pH was adjusted to 7.4. Assay buffer consisted of 50 mM HEPES supplemented with 5 mM MgCl2, 1 mM CaCl2, 0.02% Tween 20 and 0.1% Ovalbumin, and pH was adjusted to 7.4.
The cells used in this assay (clone BHK hGCGR A3*25) were BHK cells stable transfected with an expression plasmid containing the cDNA encoding the human glucagon receptor.
The cells were grown at 5% CO2 in DMEM, 10% fetal calf serum, 1% Pen/Strep (Penicillin/Streptomycin) and 1.0 mg/ml of the selection marker G418. To make a membrane preparation the cells were grown to approximately 80% confluence. The cells were washed twice in phosphate-buffered saline and harvested. The cells were pelleted using a brief centrifugation and the cell pellet was kept on ice. Lyse the cells by adding approx. 5 ml HME buffer, mix by pipetting and snap freeze in liquid nitrogen. Thaw quickly and add HME buffer to 10 ml. The cell pellet was homogenised with an ULTRA-THURRAX dispersing instrument for 20-30 sec. The homogenate was centrifuged at 20.000×G, 4° C. for 10 min. The pellet was re-suspended (homogenised) in 1-2 ml HME buffer. The protein concentration was determined. The membranes were aliquoted and snap-frozen in liquid nitrogen and stored at minus 80° C.
1. For the receptor binding assay, 50 μl of the assay buffer was added to each well of an assay plate.
2. Test compounds were serially diluted to give the following concentrations: 8×10EE-7 M, 8×10EE-8 M, 8×10EE-9 M, 8×10EE-10 M, 8×10EE-11 M, 8×10EE-12 M and 8×10EE-13 M. Twenty-five μl were added to appropriate wells in the assay plate.
3. Cell membrane aliquots were thawed and diluted to their working concentration. Fifty μl were added to each well in the assay plate.
4. WGA SPA beads were suspended in assay buffer at 20 mg/ml. The suspension was diluted to 10 mg/ml in assay buffer just prior to addition to the assay plate. Fifty μl were added to each well in the assay plate.
5. The incubation was started by adding 25 μl of 480 pM solution of [125I]-glucagon to each well of the assay plate. A 25 μl aliquot was reserved for measuring total counts/well.
6. The assay plate was incubated for 2 h at 25° C.
7. […]

Row | SMILES | IC50 [nM]
1 | CC(C)C[C@H](NC(=O)[C@H](Cc1ccc(O)cc1)NC(=O)[C@H](CCCCN)NC(=O)[C@H](CO)NC(=O)[C@H](CC(C)C)NC(=O)[C@H](CC(=O)O)NC(=O)[C@H](CO)NC(=O)[C@@H](NC(=O)[C@H](Cc1ccccc1)NC(=O)[C@@H](NC(=O)CNC(=O)[C@H](Cc1c[nH]cn1)NC(=O)C(C)(C)NC(=O)[C@@H](N)Cc1c[nH]cn1)[C@@H](C)O)[C@@H](C)O)C(=O)N[C@@H](CCC(=O)O)C(=O)N[C@@H](CO)C(=O)N[C@@H](CCCNC(=N)N)C(=O)N[C@@H](CCCNC(=N)N)C(=O)N[C@@H](C)C(=O)N[C@@H](CCCNC(=N)N)C(=O)N[C@@H](CCC(=O)O)C(=O)N[C@@H](Cc1ccccc1)C(=O)N[C@H](C(=O)N[C@@H](CCC(N)=O)C(=O)N[C@@H](Cc1c[nH]c2ccccc12)C(=O)N[C@@H](CC(C)C)C(=O)N[C@@H](CC(C)C)C(=O)N[C@@H](CCCCNC(=O)CC[C@H](NC(=O)COCCOCCNC(=O)COCCOCCNC(=O)CC[C@H](NC(=O)CC[C@H](NC(=O)CCCCCCCCCCCCCCCCC(=O)O)C(=O)O)C(=O)O)C(=O)O)C(=O)N[C@H](C(N)=O)[C@@H](C)O)C(C)C [Example 30, N^ε28-[(4S)-4-carboxy-4-[[2-[2-[2-[[2-[2-[2-[[(4S)-4-carboxy-4-[[(4S)-4-carboxy-4-(17-carboxyheptadecanoylamino)butanoyl]amino]butanoyl]amino]ethoxy]ethoxy]acetyl]amino]ethoxy]ethoxy]acetyl]amino]butanoyl]-[Aib2,His3,Leu10,Glu15,Arg20,Glu21,Leu27,Lys28]-Glucagon amide] (H-H[Aib]HGTFTSDLSKYLESRRAREFVQWLLK([γGlu-AEEA-AEEA-γGlu-γGlu-C18 diacid])T-NH2; N-terminus assumed) | 0.5
2 | CC(C)C[C@H](NC(=O)[C@H](Cc1ccc(O)cc1)NC(=O)[C@H](CCCCN)NC(=O)[C@H](CO)NC(=O)[C@H](CC(C)C)NC(=O)[C@H](CC(=O)O)NC(=O)[C@H](CO)NC(=O)[C@@H](NC(=O)[C@H](Cc1ccccc1)NC(=O)[C@@H](NC(=O)CNC(=O)[C@H](Cc1c[nH]cn1)NC(=O)C(C)(C)NC(=O)[C@@H](N)Cc1c[nH]cn1)[C@@H](C)O)[C@@H](C)O)C(=O)N[C@@H](CCC(=O)O)C(=O)N[C@@H](CO)C(=O)N[C@@H](CCCNC(=N)N)C(=O)N[C@@H](CCCNC(=N)N)C(=O)N[C@@H](C)C(=O)N[C@@H](CCCNC(=N)N)C(=O)N[C@@H](CCC(=O)O)C(=O)N[C@@H](Cc1ccccc1)C(=O)N[C@H](C(=O)N[C@@H](CCC(N)=O)C(=O)N[C@@H](Cc1c[nH]c2ccccc12)C(=O)N[C@@H](CC(C)C)C(=O)N[C@@H](CC(C)C)C(=O)N[C@@H](CCCCNC(=O)CC[C@H](NC(=O)CC[C@H](NC(=O)COCCOCCNC(=O)COCCOCCNC(=O)CC[C@H](NC(=O)CCCCCCCCCCCCCCCCC(=O)O)C(=O)O)C(=O)O)C(=O)O)C(=O)N[C@H](C(N)=O)[C@@H](C)O)C(C)C [Example 33, N^ε28-[(4S)-4-carboxy-4-[[(4S)-4-carboxy-4-[[2-[2-[2-[[2-[2-[2-[[(4S)-4-carboxy-4-(17-carboxyheptadecanoylamino)butanoyl]amino]ethoxy]ethoxy]acetyl]amino]ethoxy]ethoxy]acetyl]amino]butanoyl]amino]butanoyl]-[Aib2,His3,Leu10,Glu15,Arg20,Glu21,Leu27,Lys28]-Glucagon amide] (H-H[Aib]HGTFTSDLSKYLESRRAREFVQWLLK([γGlu-γGlu-AEEA-AEEA-γGlu-C18 diacid])T-NH2; N-terminus assumed) | 2
